The text below walks through data of patent US8461389B2, “Psycho-pharmaceuticals” (University College Dublin, National University of Ireland, …, priority 2008, dated 2013).

One experiment has as its target T1, dopamine D3 receptor (Homo sapiens, UniProt P35462).
T1 construct: Novascreen (contract screen)
Description: Novascreen receptor affinity screen (competition with reference ligand), dopamine D3. The format is binding. To be noted: 1 μM Captodiamine competing with a reference ligand; read-out: percent target inhibition, dopamine D3 receptor. On the procedure:
The Structure (FIG. 9A), receptor affinity (FIG. 9B), pharmacokinetics (FIG. 9C) and growth factor modulation (FIG. 9D) of Captodiamine are provided. Analysis of receptor affinities was performed by Novascreen™ and those displacing >20% of the natural ligand are indicated by the filled boxes. Blood levels of Captodiamine were determined by GC mass spectroscopy. In separate samples taken from a cannulated jugular at increasing time intervals following a single intraperitoneal injection of tha drug (5 mg/kg). Growth factor analysis was performed using tissue homogenates and ELISA assays specific for each growth factor (Promega). Values were analysed using a Student t-test and those with a p value<0.05 were accepted as significant and are indicated with an asterisk.
The higher the target inhibition value, the greater the affinity Captodiamine has for this particular receptor as it displaces a greater proportion of the reference ligand. This assay is an automated high throughput assay performed on cell lines that express only one type of receptor and was carried out by Novascreen (www.novascreen.com). Receptor affinity is a good starting point for determining the mechanism of action for a particular compound.

A further experiment relates to C57B16 mice. Description: Open-field test. To be noted: 3 and 5 mg/kg i.p. once daily for 7 days; FIG. 3. It is filed as in vivo. The text has this:
The open field test is designed to measure behavioural responses such as locomotor activity, hyperactivity, and exploratory behaviors. Open field is also used as a measure of anxiety. Rats and mice tend to avoid brightly illuminated, novel, open spaces, so the open field environment acts as an anxiogenic stimulus and allows for measurement of anxiety-induced locomotor activity and exploratory behaviors. Like the elevated maze test described below, open field testing is a one trial test with little or no impact on the animal's subsequent behavior. The apparatus for the open field test was a square (100 cm by 100 cm) made of white Perspex. Each rat is placed in a corner of the field and its behavior recorded for five minutes. All activity is recorded by a video camera mounted above the open field and scored in real-time (or digitized and scored later) by the advanced motion-recognition software package Ethovision by Noldus, that detects and analyzes the movements of the rat or mouse. The total distance, average speed, rearing/elongation behavior, and time spent in various parts of the field (such as, for example, the border areas vs. the open, middle area) is measured and analysed. Testing is carried out in a temperature, noise and light controlled room.
The Experimental protocol employed in the behavioural evaluation of Captodiamine is outlined in FIG. 7. […]

Another experiment deals with rat pyloric muscle. Description: Electrical field stimulation (EFS)-mediated relaxation of isolated pyloric muscle. The conditions noted are these: 25 μM Captodiamine; 10 min treatment, 10 μM-100 μM tested. On the procedure:
Inhibition of pyloric relaxation by administration of captodiamine was performed as described in Kashyap P., Micci M., Pasricha S., Pasricha P., The D2/D3 Agonist PD 128907 (R-(+)-trans-3,4a,10b-Tetrahydro-4-Propyl-2H,5H-[1]Benzopyrano[4,3-b]-1,4-Oxazin-9-ol) Inhibits Stimulated Pyloric Relaxation and Spontaneous Gastric Emptying, 2007, Digestive Diseases and Sciences.
Male Wistar rats were killed by cervical dislocation and decapitation. The stomach was removed and placed in oxygenated Krebs buffer (118 mM NaCl, 4.7 mM KCl, 1.2 mM KH2PO4, 1.2 mM MgSO4, 4.2 mM NaHCO3, 2 mM CaCl2, 10 mM glucose, 200 μM sulphinpyrazone and 10 mM Hepes, pH 7.4). […] The tissue was cut longitudinally along the mesenteric border and trimmed to 2 mm in width. At one end, the tissue was mounted onto an L-shaped electrode and placed into a 25 ml chamber containing Krebs buffer, maintained at 37° C. and continuously bubbled with 95% O2/5% CO2. The other end of the tissue was attached to an isometric force transducer using string sutured to tissue. Tension was monitored, recorded and analyzed by a digital recording device (PowerLab and Chart 5, ADInstruments). […] Spontaneous contraction of the pyloric strips were observed and recorded following the equilibration phase. […] The weight of the tissue was measured at the end of each session. […]

Molecules are shown by their SMILES.

T1 sequence (P35462 whole entry, species assumed): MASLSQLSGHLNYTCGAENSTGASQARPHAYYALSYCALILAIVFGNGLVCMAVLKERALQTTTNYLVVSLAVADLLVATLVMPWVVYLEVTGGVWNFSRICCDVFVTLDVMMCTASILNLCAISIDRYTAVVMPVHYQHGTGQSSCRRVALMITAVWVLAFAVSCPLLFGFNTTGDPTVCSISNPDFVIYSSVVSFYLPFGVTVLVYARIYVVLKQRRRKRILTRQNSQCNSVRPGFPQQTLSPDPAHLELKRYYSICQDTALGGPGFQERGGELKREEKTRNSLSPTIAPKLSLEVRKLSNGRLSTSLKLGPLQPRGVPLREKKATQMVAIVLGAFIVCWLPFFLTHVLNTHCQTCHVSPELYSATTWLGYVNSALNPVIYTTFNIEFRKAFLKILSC

Take `CCCCSc1ccc(C(SCCN(C)C)c2ccccc2)cc1` (stereo not shown) [Captodiamine, 2-[(4-butylsulfanylphenyl)-phenyl-methyl]sulfanyl-N,N-dimethyl-ethanamin]: the inhibition at 1 µM at dopamine D3 receptor was more than 80%. In the experiment with C57B16 mice, the “basal locomotion in the open-field paradigm” value was “no influence on basal locomotion” and the “time spent in the centre of the open-field arena” value was “significantly more time in the centre”. The “effect on EFS-mediated relaxation of the rat pyloric muscle” value in the experiment on rat pyloric muscle is “attenuation of the EFS-mediatated relaxation”.

The term inhibition denotes the percentage by which the read-out fell short of the control.
